Assay results: US20220144812A1, “QUINOLINE DERIVATIVES AND THEIR USE FOR THE TREATMENT OF CANCER” (Epizyme, Inc., priority 2019, published 2022)
Where two headings read alike, the source gives them in different places.

How the values were obtained:
[1] = system: H3K18Ac in HB-CLS-2 cells; assay: H3K18AC in-cell western (ICW) assay; type: cell-based; conditions: read-out: CREBBP ICW IC50
Summary of the method: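 In-cell western: after methanol fixation, blocking, overnight 4° C anti-H3K18Ac staining, then 800CW secondary plus DRAQ5 for DNA content, integrated intensities were scanned at 800 and 700 nm. Before this, compound exposure lasted 2 hr at 37° C in HB-CLS-2 cells plated 16–24 hours earlier. Values expressed as IC50 (μM).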

647V cells = assay: High throughput proliferation (HTP) assay; type: cell-based; conditions: read-out: CREBBP HTP IC50
Summary of the method: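 Proliferation IC50 (micromolar) derived from a 7-day CellTiter-Glo viable-cell readout in 647V cells exposed, in triplicate, to rising compound concentrations; cells grown in DMEM plus 15% heat-inactivated FBS at 37° C under 5% CO2.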

CREBBP (1084-1701) = target: T1, CREBBP (1084-1701) (Homo sapiens, UniProt Q92793); assay: Biochemical assay for CREBBP (1084-1701), SAMDI; conditions: read-out: CREBBP Biochemistry IC50
T1 construct: measured in the following biochemical assay using CREBBP (1084-1701); purchased
Summary of the method: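 Acetyltransferase activity measured by SAMDI mass spectrometry after capture on biochip. Enzyme sat with compound 30 min at RT before acetyl-CoA and biotinylated H3 11-25 (K14R, K23R) peptide were added for 30 min at RT. Formic acid quench, bicarbonate neutralisation; IC50 values reported.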

EP300 (P300(1048-1664)) = target: T2, EP300 (P300(1048-1664)) (Homo sapiens, UniProt Q09472); assay: Biochemical assay for EP300, SAMDI; conditions: read-out: EP300 Biochemistry IC50
T2 construct: P300(1048-1664)
T2 sequence (Q09472 1048-1664): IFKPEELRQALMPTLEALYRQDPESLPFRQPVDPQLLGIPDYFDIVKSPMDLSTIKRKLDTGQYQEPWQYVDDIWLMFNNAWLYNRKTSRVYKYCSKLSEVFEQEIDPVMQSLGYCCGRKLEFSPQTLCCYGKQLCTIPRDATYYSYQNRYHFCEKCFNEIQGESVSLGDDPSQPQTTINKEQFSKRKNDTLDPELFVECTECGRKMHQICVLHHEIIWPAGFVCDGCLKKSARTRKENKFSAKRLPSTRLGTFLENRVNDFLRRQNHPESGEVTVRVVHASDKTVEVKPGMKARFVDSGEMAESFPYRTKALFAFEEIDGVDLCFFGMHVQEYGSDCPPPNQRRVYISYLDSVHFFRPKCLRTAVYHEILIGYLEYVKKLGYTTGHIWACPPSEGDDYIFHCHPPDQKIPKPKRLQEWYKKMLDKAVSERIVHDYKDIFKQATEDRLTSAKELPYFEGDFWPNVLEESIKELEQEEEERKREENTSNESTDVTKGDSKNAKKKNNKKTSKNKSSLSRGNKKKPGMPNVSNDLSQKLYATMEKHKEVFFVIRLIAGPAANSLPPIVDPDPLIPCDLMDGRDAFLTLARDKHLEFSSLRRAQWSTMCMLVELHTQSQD
Description: The following example describes materials and methods relating to a biochemical assay for EP300. IC50 values (micromolar (μM)) are summarized in Table 1, Table 2, and Table 3 under the column labeled: “EP300 Biochemistry IC50 (micromolar).”

[2] = Homo sapiens, 647-V, high throughput proliferation

T1 sequence (Q92793 1084-1701): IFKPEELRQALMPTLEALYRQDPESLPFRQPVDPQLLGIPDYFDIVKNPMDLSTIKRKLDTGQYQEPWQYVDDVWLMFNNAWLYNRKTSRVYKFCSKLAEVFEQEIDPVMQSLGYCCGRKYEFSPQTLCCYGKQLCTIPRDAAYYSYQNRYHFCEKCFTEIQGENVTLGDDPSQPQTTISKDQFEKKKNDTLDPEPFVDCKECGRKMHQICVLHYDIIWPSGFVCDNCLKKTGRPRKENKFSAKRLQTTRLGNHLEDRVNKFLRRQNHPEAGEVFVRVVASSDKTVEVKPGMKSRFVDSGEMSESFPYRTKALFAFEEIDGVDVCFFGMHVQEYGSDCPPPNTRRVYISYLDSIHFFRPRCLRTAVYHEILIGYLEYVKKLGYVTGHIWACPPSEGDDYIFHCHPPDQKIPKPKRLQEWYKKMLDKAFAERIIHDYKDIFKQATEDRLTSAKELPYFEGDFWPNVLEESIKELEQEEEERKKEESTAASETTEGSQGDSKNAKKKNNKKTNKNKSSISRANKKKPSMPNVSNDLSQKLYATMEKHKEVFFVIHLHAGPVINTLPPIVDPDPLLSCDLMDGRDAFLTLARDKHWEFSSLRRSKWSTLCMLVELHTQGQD

IC50 ([1]; H3K18Ac in-cell western)	IC50 (CREBBP (1084-1701); SAMDI)	IC50 (EP300 (P300(1048-1664)); EP300, SAMDI)	IC50 ([1]; 2 h, H3K18Ac in HB-CLS-2 cells, 2 hrs compound incubation)	IC50 (CREBBP (1084-1701); Peptide #233, Acetyl-CoA, SAMDI mass spectrometry)	IC50 (EP300 (P300(1048-1664)); P300(1048-1664), Peptide #233, Ac-CoA, SAMDI mass spectrometry)	IC50 ([1]; H3K18Ac in-cell western, HB-CLS-2 cells)	Compound	IC50 (647V cells; [2])	IC50 (647V cells; Homo sapiens, 647-V, 168 h, 647V cells, day 7, CellTiter-Glo)	IC50 (647V cells; Homo sapiens, 647-V, high throughput proliferation, 647V cells)	IC50 (647V cells; high throughput proliferation)
6530 nM	22800 nM	14500 nM	–	–	–	–	CCn1ncc(CN(C)C(=O)c2cc(-c3cnc(N)c(C)n3)nc3ccc(Cl)cc23)c1C [Compound 474]	12800 nM	–	–	–
1000 nM	2100 nM	1100 nM	–	–	–	–	CCn1ncc(CN(C)C(=O)c2cc(-c3ccc(NC(=O)CNC)c(C)n3)nc3ccc(Cl)cc23)c1C [Compound 74]	1500 nM	–	–	–
2500 nM	970 nM	930 nM	–	–	–	–	CCn1ncc(CN(C)C(=O)c2nc(-c3ccc(OCCOC)c(Cl)c3)nc3ccc(Cl)cc23)c1C [Compound 108]	2200 nM	–	–	–
16000 nM	86000 nM	44000 nM	–	–	–	–	CCn1ncc(CN(C)C(=O)c2nc(-c3cc(CN(C)Cc4ccc(OC)cc4)nn3C)nc3ccc(Cl)cc23)c1C [Compound 176]	8200 nM	–	–	–
82.8 nM	20.5 nM	6.1 nM	–	–	–	–	CNCCNc1ccc(-c2cc(C(=O)N(C)Cc3cnc(C4CC4)n3C)c3cc(Cl)ccc3n2)nc1C [Compound 540]	23.3 nM	–	–	–
2800 nM	5200 nM	4300 nM	–	–	–	–	CCn1ncc(CN(C)C(=O)c2nc(-c3ccc(OCCN(C)S(C)(=O)=O)c(OC)c3)nc3ccc(Cl)cc23)c1C [Compound 114]	2800 nM	–	–	–
17100 nM	9850 nM	9280 nM	–	–	–	–	CCn1ncc(CN(C)C(=O)c2nc(-c3ccc(OCCNC)c(Cl)c3)nc3ccc(CS(C)(=O)=O)cc23)c1C [Compound 503]	7610 nM	–	–	–
13000 nM	28000 nM	15000 nM	–	–	–	–	CCn1ncc(CN(C)C(=O)c2cc(-c3ccc(OCCCO)cn3)nc3ccc(Cl)cc23)c1C [Compound 166]	11000 nM	–	–	–
78 nM	33 nM	26 nM	–	–	–	–	CCn1ncc(CN(C)C(=O)c2nc(-c3cc(C)nc(NCCNC)c3)nc3ccc(Cl)cc23)c1C [Compound 8]	42 nM	–	–	–
5100 nM	7500 nM	7100 nM	–	–	–	–	CCn1ncc(CN(C)C(=O)c2nc(-c3ccnc(NC(C)=O)c3)nc3ccc(Cl)cc23)c1C [Compound 135]	6700 nM	–	–	–
–	–	–	52.6 nM	24.2 nM	6.6 nM	–	CCn1ncc(CN(C)C(=O)c2cc(-c3cc(C(=O)NC)n(C)n3)nc3ccc(C4CC4)cc23)c1C [Compound 635]	–	143 nM	–	–
570 nM	63 nM	330 nM	–	–	–	–	CCn1ncc(CN(C)C(=O)c2nc(-c3ccc(OCCN4CCCC4)c(Cl)c3)nc3ccc(Cl)cc23)c1C [Compound 54]	280 nM	–	–	–
880 nM	23 nM	11 nM	–	–	–	–	CCn1ncc(CN(C)C(=O)c2nc(-c3cc(Cl)cc(OCCNC)c3)nc3ccc(Cl)cc23)c1C [Compound 60]	500 nM	–	–	–
225 nM	62.9 nM	9.3 nM	–	–	–	–	CCc1ncc(CN(C)C(=O)c2cc(-c3cc4n[nH]cc4cn3)nc3ccc(COC)cc23)n1C [Compound 510]	465 nM	–	–	–
–	56 nM	18 nM	–	–	–	120 nM	CCn1ncc(CN(C)C(=O)c2cc(-c3cc4[nH]ncc4c(C)n3)nc3ccc(Cl)cc23)c1C [Compound 401]	–	–	130 nM	–
29.1 nM	9.75 nM	3.1 nM	–	–	–	–	CCc1noc(CN(C)C(=O)c2nc(-c3cc4c(NC)[nH]nc4cc3C)nc3ccc(Cl)cc23)c1C [Compound 615]	19.5 nM	–	–	–
150 nM	4.6 nM	7.4 nM	–	–	–	–	CCn1ncc(CN(C)C(=O)c2nc(-c3cc(N)cc(Cl)c3)nc3ccc(Cl)cc23)c1C [Compound 16]	160 nM	–	–	–
670 nM	1500 nM	610 nM	–	–	–	–	CCn1ncc(CN(C)C(=O)c2nc(-c3ccc(NC4CCOCC4)cn3)nc3ccc(Cl)cc23)c1C [Compound 58]	1400 nM	–	–	–
220 nM	29 nM	92 nM	–	–	–	–	CCn1ncc(CN(C)C(=O)c2nc(-c3cc(C)nc(N)c3)nc3ccc(Cl)cc23)c1C [Compound 28]	180 nM	–	–	–
49.7 nM	13.4 nM	6.3 nM	–	–	–	–	CCn1ncc(CN(C)C(=O)c2nc(-c3cc(C)nc(N[C@@H]4CCNC4)c3)nc3ccc(Cl)cc23)c1C [Compound 552]	72.2 nM	–	–	–
130 nM	7.21 nM	4.2 nM	–	–	–	–	CCn1ncc(CN(C)C(=O)c2nc(-c3cc(C)c4[nH]c(=O)[nH]c4c3)nc3ccc(Cl)cc23)c1C [Compound 436]	94.2 nM	–	–	–
174 nM	48.7 nM	20.3 nM	–	–	–	–	CCn1ncc(CN(C)C(=O)c2cc(-c3ccc(NC4CN(CC(F)(F)F)C4)c(C)n3)nc3ccc(Cl)cc23)c1C [Compound 603]	253 nM	–	–	–
39.3 nM	4.27 nM	1.5 nM	–	–	–	–	CCn1ncc(CN(C)C(=O)c2nc(-c3ccc4n[nH]c(NC)c4c3)nc3ccc(Cl)cc23)c1C [Compound 558]	76.3 nM	–	–	–

Compound	IC50 ([1]; H3K18Ac in-cell western)	IC50 (CREBBP (1084-1701); SAMDI)	IC50 (EP300 (P300(1048-1664)); EP300, SAMDI)	IC50 ([1]; 2 h, H3K18Ac in HB-CLS-2 cells, 2 hrs compound incubation)	IC50 (CREBBP (1084-1701); Peptide #233, Acetyl-CoA, SAMDI mass spectrometry)	IC50 (EP300 (P300(1048-1664)); P300(1048-1664), Peptide #233, Ac-CoA, SAMDI mass spectrometry)	IC50 ([1]; H3K18Ac in-cell western, HB-CLS-2 cells)	IC50 (647V cells; [2])	IC50 (647V cells; Homo sapiens, 647-V, 168 h, 647V cells, day 7, CellTiter-Glo)	IC50 (647V cells; Homo sapiens, 647-V, high throughput proliferation, 647V cells)	IC50 (647V cells; high throughput proliferation)
CCn1ncc(CN(C)C(=O)c2nc(-c3ccc(NC4CCNCC4)cn3)nc3ccc(Cl)cc23)c1C [Compound 153]	9000 nM	390 nM	350 nM	–	–	–	–	–	–	–	4900 nM
